As a reminder, the MIC is the least concentration at which growth counts as inhibited. A low value points to a more susceptible organism.

Converted amounts (≈) assume the structure as drawn. The source made the active and inactive calls. The rule behind the calls is not given here.

Assay [1] has as its system Mycobacterium tuberculosis. The experiment in a line: Antituberculosis activity against Mycobacterium tuberculosis H37Rv ATCC 27294 after 2 weeks by microbroth dilution method. The format is functional. Conditions: H37Rv ATCC 27294, 336 h.
Assay [2] concerns Mycobacterium tuberculosis. The experiment in a line: Antituberculosis activity against Mycobacterium tuberculosis H37Rv ATCC 27294 in stationary phase culture at pH 5.8 up to 200 ug/ml after 3 days followed by washout from day 4 to week 4 by microbroth dilution method. Type of assay: functional, organism-based. On the technique in general: Broth dilution looks for growth in wells or tubes with falling amounts of substance.

In the case of `C=C(C)[C@@H]1CC[C@]2(C)CC[C@]3(C)[C@H](CC[C@@H]4[C@@]5(C)CC[C@H](OC(C)=O)C(C)(C)[C@@H]5CC[C@]43C)[C@@H]12` [LUPENYL ACETATE], the MIC in assay [1] was 100 µg/mL. For the same compound, the result in assay [2] was inactive.

In the case of `C[C@H]1[C@H](C)CC[C@]2(C(=O)O)CC[C@]3(C)C(=CC[C@@H]4[C@@]5(C)CC[C@H](O)C(C)(C)[C@@H]5CC[C@]43C)[C@H]12` [URSOLIC ACID], the minimal inhibitory concentration (MIC) in assay [1] came out at 100 µg/mL (≈ 219 µM). Moreover, in assay [2], the result was inactive.

`CC(C)[C@@H](C)/C=C/[C@@H](C)[C@H]1CC[C@@H]2[C@]1(C)CC[C@H]1[C@]23C=C[C@]2(C[C@@H](O)CC[C@]12C)OO3` [ERGOSTEROL PEROXIDE] registered a minimum inhibitory concentration (MIC) in assay [1] of 100 µg/mL (≈ 233 µM). Moreover, the outcome in assay [2] was inactive.

Compound `OCCCCCCCCCCCCCCCCCCCCCCC1CCCCC1` gave an MIC in assay [1] of 100 µg/mL (≈ 245 µM). The result in assay [2] was inactive.

As for `CC[C@H](/C=C/[C@@H](C)[C@H]1CC[C@H]2[C@@H]3CCC4=C[C@@H](O[C@@H]5O[C@H](CO)[C@@H](O)[C@H](O)[C@H]5O)CC[C@]4(C)[C@H]3CC[C@]12C)C(C)C`, 100 µg/mL (≈ 174 µM) was the least that counted as inhibitory in assay [1] (MIC). The outcome in assay [2] was inactive.

`C[C@H]1[C@H](C)CC[C@]2(C)CC[C@]3(C)C(=CC[C@@H]4[C@@]5(C)CCC[C@H](C)[C@@H]5CC[C@]43C)[C@H]12` yielded a minimum inhibitory concentration (MIC) in assay [1] of 100 µg/mL (≈ 252 µM). The outcome in assay [2] was inactive.

On to `OCCCCCCCCCCCCCCCCCCCCC1CCCCC1`, for which inhibition of growth in assay [1] (MIC) required 100 µg/mL (≈ 263 µM). The result in assay [2] was inactive.

On to `COc1c(O)cc2ccc(=O)oc2c1OC`, for which the MIC in assay [1] is 100 µg/mL (≈ 450 µM). Moreover, the outcome in assay [2] was inactive.

In the case of `CC[C@H](/C=C/[C@@H](C)[C@H]1CC[C@H]2[C@@H]3CCC4=C[C@@H](O[C@@H]5O[C@@H](C)[C@H](O)[C@@H](O)[C@H]5O)CC[C@]4(C)[C@H]3CC[C@]12C)C(C)C`, the MIC in assay [1] was 50 µg/mL (≈ 89.5 µM). The result in assay [2] was inactive.

On to `C=C(C)[C@@H]1CC[C@]2(C)CC[C@]3(C)[C@H](CC[C@@H]4[C@@]5(C)CC[C@H](O)C(C)(C)[C@@H]5CC[C@]43C)[C@@H]12` [LUPEOL], for which, in assay [1], the MIC was 100 µg/mL (≈ 234 µM). For the same compound, the outcome in assay [2] was inactive.

In assay [1], `CCCCC(O)CCCCCCCCCCCCCCCCCCCC(=O)CCC` (configuration not stated) displayed an MIC of 100 µg/mL (≈ 235 µM). Also, in assay [2], the result was inactive.

The compound `NNC(=O)c1ccncc1` [ISONIAZID] yielded an MIC in assay [1] of 0.02 µg/mL (≈ 0.146 µM). Further, in assay [2], the outcome was inactive.

The compound `CC[C@H](/C=C/[C@@H](C)[C@H]1CC[C@H]2[C@@H]3CC=C4C[C@@H](O)CC[C@]4(C)[C@H]3CC[C@]12C)C(C)C` [STIGMASTEROL] showed an MIC in assay [1] of 100 µg/mL (≈ 242 µM). Also, in assay [2], the result was inactive.

As for `O=C(/C=C\C=C/CCCCCCCCCCCCCCCCCO)N1CCC[C@@H](O)C1` [HALOXYLINE B], inhibition of growth in assay [1] (MIC) required 50 µg/mL (≈ 115 µM). Moreover, the result in assay [2] was inactive.

On to `CC[C@H](/C=C/[C@@H](C)[C@H]1CC[C@H]2[C@@H]3CC=C4C[C@@H](O[C@@H]5O[C@H](CO)[C@@H](O)[C@H](O)[C@H]5O)CC[C@]4(C)[C@H]3CC[C@]12C)C(C)C` [STIGMASTEROL GLUCOSIDE], for which, in assay [1], the MIC was found to be 50 µg/mL (≈ 87 µM). Besides, the result in assay [2] was inactive.

In assay [1], `CC(=O)O[C@H]1CC[C@]2(C)[C@H]3CC=C4[C@@H]5CC(C)(C)CC[C@]5(C)CC[C@@]4(C)[C@]3(C)CC[C@H]2C1(C)C` [beta-AMYRIN ACETATE] returned an MIC of 100 µg/mL. In assay [2], the result was inactive.

Take `CCC(CC[C@@H](C)[C@H]1CC[C@H]2[C@@H]3CC=C4C=CCC[C@]4(C)[C@H]3CC[C@]12C)C(C)C` (some centres not stated): the MIC in assay [1] was 100 µg/mL (≈ 252 µM). In assay [2], the result was inactive.

As to `CC(C)[C@@H](C)/C=C/[C@@H](C)[C@H]1CC[C@@H]2[C@]1(C)CC=C1[C@]23C=C[C@]2(C[C@@H](O)CC[C@]12C)OO3`, 100 µg/mL (≈ 234 µM) was the least that counted as inhibitory in assay [1] (MIC). Also, in assay [2], the result was inactive.

As for `CC1(C)CC[C@]2(C)CC[C@]3(C)C(=CC[C@@H]4[C@@]5(C)CC[C@H](O)C(C)(C)[C@@H]5CC[C@]43C)[C@@H]2C1` [beta-AMYRIN], in assay [1], the MIC stood at 100 µg/mL (≈ 234 µM). Further, the result in assay [2] was inactive.

Regarding `CCCCCCCCCCCCCCCC(=O)O[C@H]1CC[C@]2(C)[C@H]3CC=C4[C@H]5CC(C)(C)CC[C@]5(C)CC[C@@]4(C)[C@]3(C)CC[C@H]2C1(C)C`, it took 100 µg/mL (≈ 150 µM) to inhibit growth in assay [1] (MIC). In assay [2], the outcome was inactive.

In assay [1], `O=C(/C=C\C=C/CCCCCCCCCCCCCCCCCO)N1CCCCC1` [HALOXYLINE A] returned an MIC of 100 µg/mL (≈ 238 µM). The result in assay [2] was inactive.

(Values after ChEMBL document CHEMBL1177803, “In vitro antituberculosis activities of the constituents isolated from Haloxylon salicornicum” (2010).)
